“Also recorded” adds a separate entry of the source.
What was measured:
[1] = system: unilateral 6-OHDA-lesioned rats; experiment: L-Dopa-induced contralateral rotations in rotometers, add-on therapy; format: in vivo, rat; settings: add-on to L-Dopa 25 mg/kg ip; for Contralateral rotations, drugs alone vs vehicle, time for which significant: 10-min intervals, 120 min recording; for Time for which the drug given separately was active in increasing or prolonging the L-Dopa effect on contralateral rotations: each given separately
Experimental: (§1) To protect norepinephrinergic neurons, animals were administered imipramine HCl (Sigma) 15 minutes before surgery. They were subsequently anesthetized with ketamine (Ceva, 75 mg/kg) and xylazine (Bayer, 10 mg/kg) and placed in stereotaxic frame (David Kopf Instrument). 6-OHDA was injected into the right ascending medial forebrain bundle at the following coordinates (in mm) relative to bregma and surface of the dura, AP = −3.5, ML = −1.5, DV = −8.7. Each rat received one injection of 6-OHDA (4 µg/µl) over a period of 5 minutes (0.5 µl/min) for a total of 10 µg per rat. Animals were monitored for 3 weeks to ensure full recovery and habituation to the environment and experimenters.
(§2) On day 21 post surgery, all rats were challenged with a small dose of subcutaneously administered apomorphine (Sigma, 0.05 mg/kg). Rats showing more than 90 contralateral rotations (360°) over a 45-minute recording period were included in the study. […] For each experiment, rats were allocated to the different experimental groups in order to get the same mean level of basal activity measured at the apomorphine challenge amongst the different experimental groups.
The rats tested one week earlier for general activity (actometers) were once again placed in clear acrylic individual chambers (50×45 cm) with the same treatment (drug and dose) than that previously received plus L-Dopa. Eight chambers were placed on a level, clear glass bottom, held by a robust frame, and were subdivided into four individual test cages of 25×22 cm. A removable acrylic plate served as a lid.
Rotational behaviour was recorded using a home-made computerized system. Rats were fixed in a harness and linked to mechanical sensors connected directly to a computer. Each 360° clock-wise or counter clock-wise turn was automatically recorded for up to 120 minutes at the maximum. Throughout the experiments, rats were allocated to individual test cages.
Four different combinations were administered as add-on treatment to a low active dose of L-Dopa (25 mg/kg, ip) without any dopa decarboxylase inhibitor to avoid any additional pharmacokinetic interaction. The doses of the compounds were selected on the basis of preliminary dose-response curves performed separately for each drug. To avoid ceiling effect with L-Dopa, only submaximal doses of each drug were selected for testing (as it was done previously for monotherapy). Eight L-Dopa naïve animals were tested for each of the four pharmacological condition: vehicle and L-Dopa (25 mg/kg); A2A antagonist followed by vehicle and L-Dopa; vehicle followed by NR2B antagonist and L-Dopa; A2A antagonist followed by NR2B and L-Dopa. Due to the dominance of the L-Dopa-effect on the lesioned striatum, the unilateral 6-OHDA-lesioned rats rotated after the drugs administration and behavioral activity was recorded in rotometers (i.e. level of contralateral rotations).
All drugs were administered i.p. 25 minutes before behavioural recording, except for the Tozadenant and Radiprodil combination which was administered orally 60 minutes before behavioural recording. As Radiprodil was administered orally, L-Dopa was given 45 minutes after the Radiprodil injection whereas for the other combinations L-Dopa was given 15 minutes after the NR2B drug. The drugs, the doses and the combinations given in co-administration to L-Dopa are described in Table 4 .
The impact of treatment with A2A or NR2B receptor antagonists, given alone or in combination, on the effect of L-Dopa on contralateral rotations was also analysed with a three-way mixed ANOVA. The ANOVA included the A2A and the NR2B receptor antagonists (both, 2 levels, vehicle and the drug) as between-group factors combined with time (12 levels) as within-subjects factor. […] The ability of the combination to increase and prolong the activity of L-Dopa was also explored. Consequently, drug effects were analyzed for every 10-min time interval. […]

[2] = system: unilateral 6-OHDA-lesioned rats; experiment: Distance traveled in actometers, monotherapy (without L-Dopa); format: in vivo, rat
Experimental: as §1, §2
Drug-naïve separate rats were tested individually in clear acrylic chambers (LE8811 IR, Panlab). Locomotion was detected and measured by 16 infrared light-beam sensors located on each side of the enclosure at a height of 3 cm. Sensors were spaced such that the light beams formed a matrix of 15×15 squares over the surface. Activity counts were recorded on a computer and Acti-Track software (Actitrack, Panlab) was used to convert raw data into “distance traveled” and “rearing counts” for analysis as relevant dependent variables.
Six different combinations of A2A/NR2B antagonists were tested without L-Dopa. For each combination, there were four different procedures: vehicle only; A2A antagonist followed by vehicle; vehicle followed by the NR2B antagonist and A2A antagonist followed by the NR2B antagonist. The drugs, doses and combinations are described in Table 3. After drug administration, rats were placed in actometers (open-field) for monitoring the general level of motor activity (distance traveled and rearing counts).
Before undertaking the study, each A2A and NR2B antagonist was tested individually. The doses were selected on the basis of preliminary dose-response curves performed separately for each drug and submaximal dose (i.e. response observed is not at its maximal level) of each drug was selected for the combination studies. The two drugs were administered separately via an intraperitoneal (ip) injection with a 2-minute interval between the two drugs. Five minutes after the second injection, animals were placed in the testing cage for behavioural recording. Due to formulation and exposure issues, Tozadenant and Radiprodil had to be administered orally and therefore recording was started 60 minutes post dosing at this corresponds to maximum plasma concentrations. Eight drug-naïve animals were used for each of the four procedures; 32 in total for each combination. All behavioral experiments were conducted between 8.00 AM and 2.00 PM at the latest. Preliminary pharmacokinetic assays investigated the plasma and brain disposition of selected drugs administered alone or in combination (ie. Tozadenant/Radiprodil, and Sch-58261/Co-101244; 3 animals per group). Tozadenant and Radiprodil were measured in samples obtained 60 minutes after single oral administration at 30 mg/kg. Sch-58261 and Co-101244 were measured in samples collected 90 min after single intraperitoneal administration at 3 mg/kg.
The effects of A2A and NR2B antagonists on the level of motor activity (i.e. distance traveled and rearing counts) were assessed with three-way mixed ANOVA, combining the A2A receptor antagonist (2 levels, vehicle and the A2A drug) and the NR2B antagonist (2 levels, vehicle and the NR2B drug) as between-group factors with the time as within-subjects factor (6 or 9 levels). […]

[3] = Preladenant 0.03 mg/kg ip, Radiprodil 0.3 mg/kg ip
[4] = Tozadenant 30 mg/kg po, Radiprodil 3 mg/kg po
[5] = Preladenant 0.1 mg/kg ip, Radiprodil 1 mg/kg ip
[6] = Sch-58261 0.3 mg/kg ip, Co-101244 1 mg/kg ip
[7] = Sch-58261 1 mg/kg ip, Co-101244 1 mg/kg ip
[8] = Sch-58261 1 mg/kg ip, Merck 22 1 mg/kg ip

O=C(Nc1ccc2[nH]c(=O)oc2c1)C(=O)N1CCC(Cc2ccc(F)cc2)CC1 [Radiprodil]
Contralateral rotations, drugs alone vs vehicle, p (planned contrasts on each 10-min interval) [1, 3]: Not significant
Contralateral rotations, drugs main effect, p (three-way mixed ANOVA) [1, 3]: Not significant
Contralateral rotations, drugs × time effect, p (three-way mixed ANOVA) [1, 3]: p<0.01
Contralateral rotations, drugs alone vs vehicle, p (planned contrasts on each 10-min interval) [1, 4]: < 0.05
Contralateral rotations, drugs main effect, p (three-way mixed ANOVA) [1, 4]: p<0.01
Contralateral rotations, drugs × time effect, p (three-way mixed ANOVA) [1, 4]: p<0.001
Contralateral rotations, drugs alone vs vehicle, time for which significant [1, 4]: 20 ′
Time for which the drug given separately was active in increasing or prolonging the L-Dopa effect on contralateral rotations [1, 4]: 20 min
Distance traveled, drugs main effect, p (three-way mixed ANOVA) [2, 5]: p<0.001
Distance traveled, drugs × time effect, p (three-way mixed ANOVA) [2, 5]: p<0.001
Distance traveled, drugs alone vs vehicle, p (Newman-Keuls) [2, 4]: not all drugs when administered alone improved distance traveled; also recorded: Not significant
Distance traveled, drugs main effect, p (three-way mixed ANOVA) [2, 4]: p<0.01
Distance traveled, drugs × time effect, p (three-way mixed ANOVA) [2, 4]: p<0.001

Nc1nc2c(cnn2CCc2ccccc2)c2nc(-c3ccco3)nn12 [Sch-58261]
Contralateral rotations, drugs main effect, p (three-way mixed ANOVA) [1, 6]: p<0.05
Contralateral rotations, drugs × time effect, p (three-way mixed ANOVA) [1, 6]: p<0.001
Distance traveled, drugs alone vs vehicle, p (Newman-Keuls) [2, 7]: Both p<0.01
Distance traveled, drugs main effect, p (three-way mixed ANOVA) [2, 7]: p<0.001
Distance traveled, drugs × time effect, p (three-way mixed ANOVA) [2, 7]: p<0.001
Distance traveled, drugs alone vs vehicle, p (Newman-Keuls) [2, 8]: Both p<0.01
Distance traveled, drugs main effect, p (three-way mixed ANOVA) [2, 8]: p<0.001
Distance traveled, drugs × time effect, p (three-way mixed ANOVA) [2, 8]: Not significant
Distance traveled, drug alone in comparison to vehicle-treated controls ([2]; drug administered alone): significant increase

COc1ccc(N2CCOCC2)c2sc(NC(=O)N3CCC(C)(O)CC3)nc12 [Tozadenant]
Contralateral rotations, drugs alone vs vehicle, p (planned contrasts on each 10-min interval) [1, 4]: < 0.05
Contralateral rotations, drugs main effect, p (three-way mixed ANOVA) [1, 4]: p<0.001
Contralateral rotations, drugs × time effect, p (three-way mixed ANOVA) [1, 4]: p<0.001
Contralateral rotations, drugs alone vs vehicle, time for which significant [1, 4]: 80 ′
Time for which the drug given separately was active in increasing or prolonging the L-Dopa effect on contralateral rotations [1, 4]: 80 min
Distance traveled, drugs alone vs vehicle, p (Newman-Keuls) [2, 4]: not all drugs when administered alone improved distance traveled; also recorded: Not significant
Distance traveled, drugs main effect, p (three-way mixed ANOVA) [2, 4]: p<0.05
Distance traveled, drugs × time effect, p (three-way mixed ANOVA) [2, 4]: p<0.001
